Series [1] can be described thus: Volume of distribution at steady state in Sprague-Dawley rat at 2 mg/kg, iv. It counts as ADME, organism-based. Particulars: in vivo, read-out: Vdss.
The nature of series [2]: Cmax in Sprague-Dawley rat at 20 mg/kg, po. It counts as ADME, organism-based. More on the design: route oral, dose 20 mg/kg. Particulars: in vivo.
Series [3] can be described thus: AUC in Sprague-Dawley rat at 20 mg/kg, po. The series is classed as ADME, organism-based. More on the design: dose 20 mg/kg. Particulars: in vivo.
Series [4] in a line: Oral bioavailability in Sprague-Dawley rat at 20 mg/kg. The series is classed as ADME, organism-based. Particulars: in vivo.
Series [5] can be described thus: Apparent permeability from apical to basolateral side in dog MDCK cells. It counts as ADME, cell-based, Canis lupus familiaris.

As to `CCn1ncc2c(F)cc(-c3ccc(C(CC)(CC)c4nnc[nH]4)c(=O)[nH]3)cc21`, the Vd in series [1] was determined as 0.5 L/kg. Moreover, the Cmax (in general, the highest concentration seen after dosing) in series [2] turned out to be 5120 ng/mL. Further, the AUC (commonly the area under the concentration-time curve, a measure of exposure) in series [3] came to 59653 ng·h/mL. For the same molecule, the F in series [4] is 81.6%.
In the case of `CC(C)C(c1noc(=O)[nH]1)c1ccc(-c2ccc3cccc(F)c3c2)[nH]c1=O` (configuration not stated), the Papp A→B (in general, how fast a substance crosses the layer from the apical side) in series [5] was 25.3 ×10⁻⁶ cm/s. For the same molecule, the Vd in series [1] was 0.21 L/kg. In series [2], this molecule gave a Cmax of 6960 ng/mL. For the same molecule, in series [3], the AUC turned out to be 15775 ng·h/mL. Moreover, the F in series [4] was determined as 47.8%.
In the case of `CC(C)C(c1nnc[nH]1)c1ccc(-c2ccc3cccc(F)c3c2)[nH]c1=O` (configuration not stated), the Vd in series [1] is 1.98 L/kg. Moreover, the Cmax in series [2] was determined as 409 ng/mL. This molecule also gave an AUC in series [3] of 4242 ng·h/mL.
